Literature values in patent US9035093B2 (Colgate-Palmolive Company, priority 2009, dated 2015).

Settings: room temperature, natural partial pressure (3.5×10^−4 atmosphere)

O=C=O [Carbon dioxide]
maximum concentration of carbon dioxide in water: 12 µM
